Assay [1] addresses Induced myeloid leukemia cell differentiation protein Mcl-1 (Homo sapiens, UniProt Q07820). The experiment in a line: Inhibition of 5-FAM-Bid peptide binding to MCL-1 (unknown origin) by fluorescence polarization assay. For orientation: Polarisation of emitted light reports the rotation of a fluorescent probe.
The species entered for assay [2] is Homo sapiens. The assay is described as follows: Selectivity index, ratio of Ki for Bcl-2 (unknown origin) to Ki for Bcl-XL (unknown origin).
For assay [3], the species on record is Homo sapiens. The experiment in a line: Selectivity index, ratio of Ki for Bcl-2 (unknown origin) to Ki for MCL-1 (unknown origin).
Assay [4] concerns the target Apoptosis regulator Bcl-2 (Homo sapiens, UniProt P10415). The experiment in a line: Inhibition of 5-FAM-Bid peptide binding to Bcl-2 (unknown origin) by fluorescence polarization assay.
The target of assay [5] is Bcl-2-like protein 1 (Homo sapiens, UniProt Q07817). The experiment in a line: Inhibition of 5-FAM-Bid peptide binding to Bcl-XL (unknown origin) by fluorescence polarization assay.
Chain of Bcl-2-like protein 1 (Q07817 whole entry): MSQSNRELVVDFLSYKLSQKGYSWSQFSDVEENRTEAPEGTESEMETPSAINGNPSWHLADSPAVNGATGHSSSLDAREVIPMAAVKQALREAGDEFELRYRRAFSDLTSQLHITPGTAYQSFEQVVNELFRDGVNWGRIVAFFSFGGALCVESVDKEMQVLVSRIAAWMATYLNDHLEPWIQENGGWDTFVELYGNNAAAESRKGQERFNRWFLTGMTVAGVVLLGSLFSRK
The nature of assay [6]: Growth inhibition of human MCF7 cells after 72 hrs by MTT assay. As to conditions: MCF7, 72 h. Format: functional, cell-based.
A short description of assay [7]: Growth inhibition of human NCI-H23 cells after 72 hrs by MTT assay. It is filed as functional, cell-based. As to conditions: NCI-H23, 72 h. (In general: Tetrazolium assays rely on reduction of a dye to a coloured formazan, in cell work by metabolically active cells.)
A short description of assay [8]: Growth inhibition of human U266 cells after 72 hrs by MTT assay. It is filed as functional, cell-based. As to conditions: U-266, 72 h.
A short description of assay [9]: Growth inhibition of human HL60 cells after 72 hrs by MTT assay. Format: functional, cell-based. As to conditions: HL-60, 72 h.
Assay [10] is described as follows: Growth inhibition of human SKOV3 cells after 72 hrs by MTT assay. It is filed as functional, cell-based. As to conditions: SK-OV-3, 72 h.

The values below come from ChEMBL document CHEMBL3856277, “Design, synthesis, and activity evaluation of selective inhibitors of anti-apoptotic Bcl-2 proteins: The effects on the selectivity of the P1 pockets in the active sites” (Bioorg Med Chem Lett, 2016).

Chain of Apoptosis regulator Bcl-2 (P10415 whole entry): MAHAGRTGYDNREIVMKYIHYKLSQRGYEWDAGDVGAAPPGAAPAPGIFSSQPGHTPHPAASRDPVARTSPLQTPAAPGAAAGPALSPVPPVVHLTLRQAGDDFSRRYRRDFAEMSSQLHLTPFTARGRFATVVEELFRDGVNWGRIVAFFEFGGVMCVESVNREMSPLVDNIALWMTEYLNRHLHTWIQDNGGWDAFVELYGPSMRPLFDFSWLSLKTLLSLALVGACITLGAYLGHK
Chain of Induced myeloid leukemia cell differentiation protein Mcl-1 (Q07820 whole entry): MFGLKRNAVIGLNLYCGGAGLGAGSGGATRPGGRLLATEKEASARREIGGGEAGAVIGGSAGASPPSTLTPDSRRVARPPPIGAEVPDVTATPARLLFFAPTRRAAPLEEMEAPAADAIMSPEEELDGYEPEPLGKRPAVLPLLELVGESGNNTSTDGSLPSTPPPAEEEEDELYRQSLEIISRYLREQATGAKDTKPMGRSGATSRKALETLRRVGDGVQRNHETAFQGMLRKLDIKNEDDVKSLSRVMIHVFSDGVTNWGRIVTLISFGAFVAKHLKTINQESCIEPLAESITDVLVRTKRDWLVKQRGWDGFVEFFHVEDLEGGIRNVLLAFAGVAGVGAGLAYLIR

By Ki is commonly meant a measure of affinity in units of concentration, obtained from inhibition or displacement. High values mean a looser hold on the target, low ones a stronger hold on the target. `Cc1cc2c(C(C)C)c(O)c(O)c(C=O)c2c(O)c1-c1c(C)cc2c(C(C)C)c(O)c(O)c(C=O)c2c1O` [GOSSYPOL] returned a Ki in [1] of 0.64 µM.
Regarding `O=C(/C=C/c1ccccc1C(F)(F)F)Nc1ccc(C(=O)NS(=O)(=O)c2ccc(NCCSc3ccccc3)c([N+](=O)[O-])c2)cc1`, the inhibition constant (Ki) was 0.66 µM in assay [1], 1.7 µM in assay [4] and 0.17 µM in assay [5]. Also, the Ratio Ki in assay [2] is 10; in assay [3], 3.
On the same counts, the results for `O=C(/C=C/c1cccc(Cl)c1)Nc1ccc(C(=O)NS(=O)(=O)c2ccc(NCCSc3ccccc3)c([N+](=O)[O-])c2)cc1` are 1.3 µM, 1.3 µM, 0.29 µM, 4 and 1.
On the same counts, the results for `Cc1cccc(/C=C/C(=O)Nc2ccc(C(=O)NS(=O)(=O)c3ccc(NCCSc4ccccc4)c([N+](=O)[O-])c3)cc2)c1` are 0.44 µM, 1.7 µM, 0.16 µM, 11 and 4.
On the same counts, the results for `COc1ccc(/C=C/C(=O)Nc2ccc(C(=O)NS(=O)(=O)c3ccc(NCCSc4ccccc4)c([N+](=O)[O-])c3)cc2)cc1` are 0.59 µM, 1.3 µM, 0.07 µM, 19 and 2.
As a reminder, the IC50 is the concentration that inhibits the measured activity by half. A higher IC50 goes with weaker potency in that assay. Turning to `C=C(c1ccc(C(=O)NS(=O)(=O)c2ccc(NCCSc3ccccc3)c([N+](=O)[O-])c2)cc1)c1cc2c(cc1C)C(C)(C)CCC2(C)C`, the IC50 in assay [6] is 2.25 µM; in assay [7] it was 7.4 µM; in assay [8], 7.63 µM; in assay [9] it was 4.86 µM; in assay [10], 7.64 µM. The Ki in [1] was 0.06 µM; in [4], 4.2 µM; in assay [5] it was more than 20 µM. Besides, the Ratio Ki in assay [2] was less than 1; in assay [3] it was 70.
Turning to `O=C(/C=C/c1ccccc1Cl)Nc1ccc(C(=O)NS(=O)(=O)c2ccc(NCCSc3ccccc3)c([N+](=O)[O-])c2)cc1`, the figures for the Ki in [1], in [4] and in [5] were 14 µM, 0.6 µM and 0.12 µM, respectively. In addition, the Ratio Ki in assay [2] is 5; in [3], less than 1.
The like results for `Cc1ccccc1/C=C/C(=O)Nc1ccc(C(=O)NS(=O)(=O)c2ccc(NCCSc3ccccc3)c([N+](=O)[O-])c2)cc1` were, in that order, 0.83 µM, 1.7 µM, 0.21 µM, 8 and 2.
The like results for `O=C(Cc1ccccc1)Nc1ccc(C(=O)NS(=O)(=O)c2ccc(NCCSc3ccccc3)c([N+](=O)[O-])c2)cc1` were, in that order, 5.6 µM, 4 µM, 0.45 µM, 9 and 1.
With `O=C(CCc1ccccc1)Nc1ccc(C(=O)NS(=O)(=O)c2ccc(NCCSc3ccccc3)c([N+](=O)[O-])c2)cc1`, the Ki in assay [1] was found to be 6.9 µM; in [4], 4.4 µM; in [5], 0.32 µM. Also, the results for the Ratio Ki in assay [2] and in [3] were 14 and 1, respectively.
The like results for `O=C(NS(=O)(=O)c1ccc(NCCSc2ccccc2)c([N+](=O)[O-])c1)c1ccc(C(=O)c2ccccc2)cc1` were, in that order, 4 µM, 3.4 µM, 0.33 µM, 10 and 1.
The like results for `O=C(/C=C/c1ccc(C(F)(F)F)cc1)Nc1ccc(C(=O)NS(=O)(=O)c2ccc(NCCSc3ccccc3)c([N+](=O)[O-])c2)cc1` were, in that order, 1.7 µM, 2 µM, 0.51 µM, 4 and 1.
The like results for `COc1ccccc1/C=C/C(=O)Nc1ccc(C(=O)NS(=O)(=O)c2ccc(NCCSc3ccccc3)c([N+](=O)[O-])c2)cc1` were, in that order, 8.6 µM, 0.72 µM, 0.09 µM, 8 and less than 1.
Turning to `CN(C)CC[C@H](CSc1ccccc1)Nc1ccc(S(=O)(=O)NC(=O)c2ccc(N3CCN(Cc4ccccc4-c4ccc(Cl)cc4)CC3)cc2)cc1[N+](=O)[O-]` [ABT 737], the IC50 was 25.3 µM in assay [6]; 71.2 µM in [7]; 27.4 µM in [8]; 0.97 µM in [9]; 46.6 µM in assay [10].
Consider `O=C(/C=C/c1ccc(Cl)cc1)Nc1ccc(C(=O)NS(=O)(=O)c2ccc(NCCSc3ccccc3)c([N+](=O)[O-])c2)cc1`, for which the figures for the Ki in assay [1], in assay [4] and in assay [5] were 2.7 µM, 1.1 µM and 0.21 µM, respectively. Besides, the Ratio Ki in assay [2] is 5; in assay [3] it was less than 1.
On the same counts, the results for `O=C(Nc1ccc(C(=O)NS(=O)(=O)c2ccc(NCCSc3ccccc3)c([N+](=O)[O-])c2)cc1)c1ccccc1` are 6.7 µM, 1.7 µM, 0.63 µM, 3 and less than 1.
In the case of `O=C(/C=C/c1ccccc1)Nc1ccc(C(=O)NS(=O)(=O)c2ccc(NCCSc3ccccc3)c([N+](=O)[O-])c2)cc1`, the Ki in [1] is 1.6 µM; in assay [4], 4.9 µM; in assay [5] it was 0.14 µM. Further, the results for the Ratio Ki in assay [2] and in assay [3] were 35 and 3, respectively.
With `Cc1ccc(/C=C/C(=O)Nc2ccc(C(=O)NS(=O)(=O)c3ccc(NCCSc4ccccc4)c([N+](=O)[O-])c3)cc2)cc1`, the Ki came out at 0.63 µM in assay [1], 1.5 µM in assay [4] and 0.13 µM in assay [5]. Further, the Ratio Ki worked out at 12 in assay [2] and 2 in [3].
Turning to `C=C(c1ccc(C(=O)Nc2ccc(C(=O)NS(=O)(=O)c3ccc(NCCSc4ccccc4)c([N+](=O)[O-])c3)cc2)cc1)c1cc2c(cc1C)C(C)(C)CCC2(C)C`, the IC50 in [6] was found to be 0.26 µM; in assay [7], 8.38 µM; in assay [8], 6.95 µM; in [9], 2.92 µM; in assay [10], 7.83 µM. The inhibition constant (Ki) in assay [1] was 0.29 µM; in assay [4], 3.1 µM; in [5] it was more than 20 µM. The Ratio Ki in assay [2] was less than 1; in assay [3] it was 11.
On to `COc1cccc(/C=C/C(=O)Nc2ccc(C(=O)NS(=O)(=O)c3ccc(NCCSc4ccccc4)c([N+](=O)[O-])c3)cc2)c1`, for which the Ki in assay [1] turned out to be 0.8 µM; in [4] it was 1.9 µM; in [5], 0.11 µM. In addition, the Ratio Ki in [2] stood at 17; in assay [3] it was 2.
Turning to `O=C(/C=C/c1cccc(C(F)(F)F)c1)Nc1ccc(C(=O)NS(=O)(=O)c2ccc(NCCSc3ccccc3)c([N+](=O)[O-])c2)cc1`, the Ki was 5.4 µM in [1], 2.6 µM in assay [4] and 0.29 µM in assay [5]. Also, the values for the Ratio Ki in assay [2] and in assay [3] were 9 and less than 1, respectively.
